# Data reported in patent US9072741B2, “Methods of treating liver fibrosis and pre-cirrhosis with epidermal growth factor receptor inhibitors” (The General Hospital Corporation, priority 2009, dated 2015).
# Values joined by “and” are separate entries in the source; they are usually repeats but may differ in a detail not shown here. Equal entries are not always repeated. Marks after values point to notes of the source that are not given here.
# What was measured:
# [1] = test system: DEN-induced cirrhosis and HCC; assay: DEN-induced rat model of cirrhosis and HCC: tumor formation (tumor nodules) and gross liver appearance; format: in vivo, male Wistar rats; settings: for decrease of tumor formation: vs vehicle
# Description: FIG. 1A is a bar graph depicting the number of tumor nodules in male Wistar rats receiving weekly intraperitoneal injections of 50 mg/kg diethylnitrosamine (DEN) for 18 weeks and vehicle only (n=16), 0.5 mg/kg erlotinib (Erl 0.5; n=8), or 2 mg/kg erlotinib (Erl 2; n=8) during weeks 12-18.
# FIG. 5A is a bar graph depicting the number of tumor nodules in male Wistar rats receiving weekly intraperitoneal injections of 50 mg/kg DEN for 18 weeks and vehicle only (n=8) or 18 mg/kg lapatinib (n=8) during weeks 12-18. *, significant.
# Given the lack of successful treatment options for HCC, chemoprevention in high-risk patients has been proposed as an alternative strategy (Llovet et al., Lancet 362:1907-17, 2003). Even though EGFR inhibition is not effective for chemotherapy, the data presented herein indicate that it is likely to be a good chemoprevention strategy. The diethylnitrosamine (DEN)-induced rat model of sequential cirrhosis and HCC has emerged as a promising tool for not only studying the course of chronic liver disease but also for testing putative chemopreventive agents as it better resembles disease progression in humans (Lee et al., Korean J Hepatol 13:70-80, 2007; Schiffer et al., Hepatology 41:307-14, 2005). In this model, DEN induces liver cirrhosis after 12 weeks and HCC at approximately 18 weeks allowing ample opportunity for preventative intervention.
# (§1) Erlotinib is a drug used to treat non-small cell lung cancer and pancreatic cancer. Erlotinib specifically targets the EGFR, which is highly expressed and occasionally mutated in various forms of cancer, by binding to the adenosine triphosphate (ATP) binding site of the receptor (Raymond et al., Drugs 60 Suppl 1:15-23, 2000). To investigate erlotinib as a chemoprevention strategy for liver fibrogenesis, male Wistar rats were given a weekly intraperitoneal injection of 50 mg/kg DEN to induce cirrhosis and HCC (Lee et al., Korean J Hepatol 13:70-80, 2007). Erlotinib was administered by intraperitoneal injection daily (5× a week) during weeks 12-18 at a dose of 2 mg/kg, which is equivalent to chemotherapeutic dosing regimens in humans. […] In a separate study, the dose of erlotinib was lowered to 0.5 mg/kg.
# (§2) Repeated injury to the liver causes damage to hepatocytes and activates resident macrophages called Kupffer cells. Damaged hepatocytes and activated Kupffer cells secrete cytokines and growth factors into the liver milieu, which activate hepatic stellate cells (Friedman, Gastroenterology 134:1655-69, 2008). Normally, hepatic stellate cells are quiescent and store vitamin A and fat. Upon activation, they differentiate into a myofibroblast-phenotype and express α-smooth muscle actin (α-SMA) (Friedman, Gastroenterology 134:1655-69, 2008). Activated hepatic stellate cells deposit fibrous collagen into the space of Disse acutely causing fibrosis and chronically causing cirrhosis. The degree of liver disease (fibrosis versus cirrhosis) is pathologically assessed through trichrome staining of collagen by the method of Ishak (Mod Pathol 7:690-713, 1994).
# (§3) To investigate lapatinib as a chemoprevention strategy for liver fibrogenesis, male Wistar rats were given a weekly intraperitoneal injection of 50 mg/kg DEN to induce cirrhosis and HCC (Lee et al., Korean J Hepatol 13:70-80, 2007). Lapatinib was administered by intraperitoneal injection daily (5× a week) during weeks 12-18 at a dose of 18 mg/kg.
# [2] = test system: DEN-induced liver fibrosis/cirrhosis; assay: DEN-induced rat model: fibrosis/cirrhosis by Ishak score of Masson's trichrome stained liver sections; format: in vivo, male Wistar rats; settings: for mode of Ishak score: vehicle mode 6; for range of Ishak score: vehicle range 2-6
# Description: FIG. 2A is a bar graph depicting the Ishak score of male Wistar rats receiving weekly intraperitoneal injections of DEN (50 mg/kg) for 18 weeks and vehicle only (n=16), 0.5 mg/kg erlotinib (Erl 0.5; n=8), or 2 mg/kg erlotinib (Erl 2; n=8) during weeks 12-18.
# FIG. 6A is a bar graph depicting the Ishak score of male Wistar rats receiving weekly intraperitoneal injections of DEN (50 mg/kg) for 18 weeks and vehicle only (n=8) or 18 mg/kg lapatinib (n=8) during weeks 12-18. *, significant.
# as §1, §2
# In early stages of liver fibrosis, collagen deposition is localized around the portal tracts (Ishak score 1 or 2), but it bridges between portal tracts at later stages of fibrosis (Ishak score 3 or 4) and ultimately forms nodules around regenerating hepatocytes during cirrhosis (Ishak score 5 or 6). Although there is some heterogeneity in this model, intraperitoneal administration of DEN causes, on average, an Ishak score 0.8 (range 0-2) fibrosis after 8 weeks, an Ishak score 4.1 (range 3-6) fibrosis/cirrhosis after 12 weeks, and an Ishak score 5.1 (range 4-6) cirrhosis after 18 weeks. Consistent with this, hepatic stellate cell activation increases over time after DEN administration as assessed by α-SMA staining.
# Remarkably, erlotinib inhibited fibrogenesis. […] The range for 16 vehicle animals was 2-6 with a mode of 6 as illustrated in FIG. 2B. […] To further examine the effects of erlotinib on liver fibrosis, α-SMA staining was performed for activated hepatic stellate cells.
# as §3
# Similar to erlotinib, lapatinib inhibited fibrogenesis. […] To further examine the effects of lapatinib on liver fibrosis, α-SMA staining was performed for activated hepatic stellate cells.
# [3] = test system: DEN-induced fibrosis and cirrhosis; assay: DEN-treated rats with liver biopsy before and after treatment (disease progression within the same animal); format: in vivo, male Wistar rats
# Description: FIG. 3A is a scheme of the experiment. Male Wistar rats received weekly intraperitoneal injections of DEN (50 mg/kg) for 18 weeks. After 12 weeks, the rats underwent a survival hepatectomy and a liver biopsy was removed for histology. Rats then received vehicle or erlotinib (2 mg/kg) daily (5 days/week) during weeks 13-18. Rats were sacrificed at 19 weeks after a one-week washout of DEN. FIG. 3B is a bar graph showing Ishak scores from Masson's trichrome stains of liver sections from each animal. **p<0.01 compared to vehicle. FIG. 3C is a bar graph depicting the number of tumor nodules that were greater than 5 mm in diameter in rats that received vehicle or erlotinib. **p<0.01 compared to vehicle. FIG. 3D is a bar graph showing the weights of livers at the time of sacrifice expressed as percent body weight.
# To further examine the ability of erlotinib to reverse fibrosis and cirrhosis, liver biopsies were performed on DEN-treated rats before and after they received erlotinib (FIG. 3A) to determine disease progression within the same animal.
# advanced HCC = settings: recent clinical trials (Philip et al.; Thomas et al.); cited from earlier work
compound,measurement,setting,value
"C#Cc1cccc(Nc2ncnc3cc(OCCOC)c(OCCOC)cc23)c1 [erlotinib, 4-Quinazolinamine, N-(3-ethynylphenyl)-6,7-bis(2-methoxyethoxy)]",inhibition of tumor formation,"[1]; 0.5 mg/kg i.p. daily weeks 12-18, DEN 50 mg/kg weekly for 18 weeks, separate study",49%
same,decrease of tumor formation,"[1]; 2 mg/kg i.p. daily (5x a week) weeks 12-18, DEN 50 mg/kg weekly for 18 weeks",75%
same,gross appearance of livers,"[1]; 0.5 and 2 mg/kg weeks 12-18 (FIGS. 1C, 1D) vs vehicle","not only exhibited less tumors, but also appeared less cirrhotic"
same,average Ishak score,"[2]; 0.5 mg/kg weeks 12-18, n=8, vehicle 4.9",4.3
same,mode of Ishak score,[2]; 0.5 mg/kg weeks 12-18,4
same,range of Ishak score,[2]; 0.5 mg/kg weeks 12-18,3-6
same,average Ishak score,"[2]; 2 mg/kg weeks 12-18, n=8, vehicle 4.9",2.6
same,mode of Ishak score,[2]; 2 mg/kg weeks 12-18,2
same,range of Ishak score,[2]; 2 mg/kg weeks 12-18,1-4
same,animals with reversed disease progression,"[3]; 2 mg/kg weeks 13-18, eight animals",two out of eight
same,"fibrosis and cirrhosis (Ishak, FIG. 3B)",[3]; 2 mg/kg weeks 13-18 vs vehicle,significantly less fibrosis and cirrhosis
same,"tumorigenesis (tumor nodules greater than 5 mm, FIG. 3C)",[3]; 2 mg/kg weeks 13-18 vs vehicle,significant decrease in tumorigenesis
same,"liver weight (percent body weight, FIG. 3D)","[3]; 2 mg/kg weeks 13-18 vs vehicle, at sacrifice",decrease in liver weight
same,"Ishak 19 weeks, AVERAGE","[3]; average of 8 rats after 2 mg/kg weeks 13-18, vehicle 5.8",4.3*
same,"Change of Ishak score, AVERAGE","[3]; average of 8 rats, 2 mg/kg weeks 13-18, vehicle +2.2",+1
same,"Ishak 13 weeks, AVERAGE","[3]; average of 8 rats, biopsy before treatment, vehicle 3.6",3.3
same,Change of Ishak score,"[3]; individual rats, 19 weeks vs 13 weeks, 2 mg/kg weeks 13-18, 2 mg/kg",+3 and +2 (3×) and −2 and −1 and +1 (2×)
same,Ishak 19 weeks,"[3]; individual rats, after 2 mg/kg daily (5 days/week) weeks 13-18",6 and 5 (2×) and 4 (3×) and 3 (2×)
same,Ishak 13 weeks,"[3]; individual rats, biopsy before treatment (baseline)",3 (4×) and 2 (2×) and 5 (2×)
same,disease control in advanced HCC patients,advanced HCC,improved disease control in only a minority
"CS(=O)(=O)CCNCc1ccc(-c2ccc3ncnc(Nc4ccc(OCc5cccc(F)c5)c(Cl)c4)c3c2)o1 [lapatinib, 4-Quinazolinamine, N-(3-chloro-4-((3-fluorophenyl)methoxy)phenyl)-6-(5-(((2-(methylsulfonyl)ethyl)amino)methyl)-2-furanyl)]",decrease of tumor formation,"[1]; 18 mg/kg i.p. daily (5x a week) weeks 12-18, DEN 50 mg/kg weekly for 18 weeks",greater than 50%
same,gross appearance of livers,[1]; 18 mg/kg weeks 12-18 (FIG. 5C) vs vehicle,"not only exhibited less tumors, but also appeared less cirrhotic"
same,average Ishak score,"[2]; 18 mg/kg weeks 12-18, n=8, vehicle 5.6",4.3
